Literature values in patent US20140011742A1, “Bioactive Peptides and Proteins Containing Bioactive Peptides, their Uses and Processes for Making the Same” (MCGILL UNIVERSITY, priority 2010, published 2014).

Conditions: compared with β-Lg hydrolysates; as previously reported

## O=C1O[C@H]([C@@H](O)CO)C(O)=C1O [Vitamin C]
  radical scavenging activity: comparable radical scavenging activity
